Values joined by “and” are separate entries in the source; they are usually repeats but may differ in a detail not shown here. Identical values can stand only once. “Also recorded” adds a separate entry of the source. Like-named read-outs stand apart in the source and are kept apart here. Each block holds one compound with its values, some of them ahead of it.
Columns and labels:
A549 cells = assay: Cell viability (MTT) assay, A549; format: cell-based, human; details: 72 h
Method: (§1) The antiproliferative activity of the synthesized compounds was tested in cell viability assays optimally set up for various cancer cell lines (results are depicted in Table 2, n = 3, average IC50 (μM) ± SD).
Cells were plated at a density of 5 × 10^3 cells per well on 96-well plates. After 24 h of incubation (37 °C, 5% CO2), the cell medium was removed, and compounds were added at selected concentrations (0.1–100 μM), followed by incubation for 72 h. Control cells were treated with 0.4% DMSO medium to match the conditions in the wells where drugs were added. After 72 h, the medium was removed, and the 3-(4,5-dimethylthiazol-2-yl)-2,5-diphenyltetrazolium bromide (MTT) solution (0.3 mg/mL in PBS) was added to cells for 3 h under no light conditions. The MTT solution was removed, and the formazan crystals were dissolved in 100 μL of DMSO. The optical density was measured at 570 nm with a reference wavelength of 690 nm using an absorbance microplate reader (SpectraMax 190, Molecular Devices, Sunnyvale, CA, USA). The half-maximal inhibitory concentration (IC50) was calculated based on a four-parameter logistic equation, generating a cell viability curve, using GraphPad Prism 6.01 (GraphPad Software, Inc.). […] The resulting absorbance values were used instead of IC50 calculation. […]

SKBR3 cells [1] = assay: Cell uptake / intracellular concentration by LC-MS/MS, SKBR3; format: in vitro ADME, human; details: SKBR3, 24 h incubation with 10 μM
Method: (§2) Therefore, in order to better comprehend the observed activities of our degraders, following incubation of each compound with cells, the intracellular concentrations of the synthesized derivatives were evaluated in different cancer cell lines, as described previously.[28],[29] SKBR3, PC3, or A549 cells were incubated with PROTACs (at a 10 μΜ concentration) for selected time points, respectively. Upon sample treatment, compounds were extracted and analyzed by LC-MS/MS. Table 1 presents the percentage of the molecule that enters the cells after 24 h incubation at the 10 μM concentration. […] The small molecule MYCi361, used as a binding domain component of MYC, was also evaluated in the cell uptake assay (Table 1).
(§3) Cells were plated in 24-well plates at a density of 2 × 10^5 cells/well. 24 h after seeding, cells were incubated with each PROTAC (10 μΜ) for certain time points (1 h, 4 h, 8 h, and 24 h). The incubations were terminated at the selected time points by removing the medium and washing the cells twice with 1 mL cold PBS (1×) in each well in order to remove unbound PROTAC. Subsequently, the cells were lysed by adding a cold solution of ACN:H2O (3:2) and scraping off the cell monolayer. This process was done in two steps: first, 200 μL of ACN:H2O was added, the cells were scraped, and the cell lysate was collected. The second step involved the addition of an extra 100 μL of ACN:H2O, scraping, and collection of the remaining lysate. Samples were subsequently vortexed, sonicated, and centrifuged for 10 min at 13 000 rpm. The supernatants were collected, evaporated for 1 h at 55 °C, and stored at −20 °C until the day of analysis. Samples were then reconstituted in 200 μL of initial mobile phase (100% A), and the intracellular accumulation of PROTACs was determined by LC-MS/MS analysis using Warfarin as a stable internal standard and PROTAC standards for the construction of analytical standard curves.
(§4) The percentage of cell uptake was calculated as follows: [drawing 1]

PC3 cells [2] = assay: Cell viability (MTT) assay, PC3; format: cell-based, human; details: for IC50: read-out: IC50 (antiproliferative effect)
Method: as §1
(§5) Cells were plated at a density of 5 × 10^3 cells per well on 96-well plates. After 24 h of incubation (37 °C, 5% CO2), the cell medium was removed, and compounds were added at selected concentrations (0.1–100 μM), followed by incubation for 72 h. Control cells were treated with 0.4% DMSO medium to match the conditions in the wells where drugs were added. After 72 h, the medium was removed, and the 3-(4,5-dimethylthiazol-2-yl)-2,5-diphenyltetrazolium bromide (MTT) solution (0.3 mg/mL in PBS) was added to cells for 3 h under no light conditions. The MTT solution was removed, and the formazan crystals were dissolved in 100 μL of DMSO. The optical density was measured at 570 nm with a reference wavelength of 690 nm using an absorbance microplate reader (SpectraMax 190, Molecular Devices, Sunnyvale, CA, USA). The half-maximal inhibitory concentration (IC50) was calculated based on a four-parameter logistic equation, generating a cell viability curve, using GraphPad Prism 6.01 (GraphPad Software, Inc.). Two concentrations of an established drug, Docetaxel (100 nM and 1 nM), were used in each experiment as a positive control. The resulting absorbance values were used instead of IC50 calculation. Each point was the result of three independent experiments performed in triplicate.

c-MYC = target: T1, c-MYC (Homo sapiens, UniProt P01106); assay: MYC degradation in PC3 cells, Western blot; format: cell-based; details: for MYC degradation (MYC levels by Western blot): 10 μΜ, 24 h
T1 construct: endogenous in cells; host or cells: PC3
T1 sequence (P01106 whole entry): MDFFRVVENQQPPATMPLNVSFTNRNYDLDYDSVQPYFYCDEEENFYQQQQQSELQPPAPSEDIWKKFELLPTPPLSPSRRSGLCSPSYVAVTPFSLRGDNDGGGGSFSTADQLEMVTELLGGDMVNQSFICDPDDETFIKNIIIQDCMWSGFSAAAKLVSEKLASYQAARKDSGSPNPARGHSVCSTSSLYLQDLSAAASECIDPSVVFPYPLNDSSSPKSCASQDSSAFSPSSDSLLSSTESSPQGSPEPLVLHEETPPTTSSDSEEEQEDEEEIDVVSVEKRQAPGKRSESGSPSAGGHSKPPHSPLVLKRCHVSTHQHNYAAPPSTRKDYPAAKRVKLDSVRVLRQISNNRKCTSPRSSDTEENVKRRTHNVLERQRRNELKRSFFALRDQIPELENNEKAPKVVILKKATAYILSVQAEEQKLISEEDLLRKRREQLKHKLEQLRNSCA
Method: The ability of novel compounds to induce MYC degradation in the PC3 cell line was evaluated via a Western blot-based assay. […] A PROTAC that effectively degrades bromodomain and extra-terminal (BET) family proteins, with indirect action on MYC levels, BETd-260, was also included in these experiments as a positive control. BETd-260 was tested at a lower concentration (1 μΜ) due to its high potency.[26]
PC3 cells were used for the determination of MYC levels after treatment with the PROTACs under study. Cells (at a density of 250 000 per well) were seeded in 6-well plates for 24 h until 60% confluence. During the 24-h incubation period, cells were treated with the tested compounds (10 μΜ) and BETd-260 (1 μΜ) that was used as a positive control. For rescue experiments, cells were pretreated with the inhibitor MG-132 for 2 h, and then, the medium was removed, followed by the addition of the selected compound. After the 24-h incubation period, a cell lysis protocol was performed. The medium was removed, and the cells were rinsed with cold PBS. Lysis was induced using RIPA lysis buffer (50 mM Tris-HCl at pH 7.5, 150 mM NaCl, 5 mM Na2EDTA, 1 mM EGTA, 0.1% SDS, 1% NP-40, 0.5% sodium deoxycholate, 8 mM sodium fluoride, and 1 mM sodium orthovanadate) and protease inhibitor cocktail (Roche, UK). Total protein concentration in lysate samples was determined via performance of the Bradford assay in bovine serum albumin (BSA). Standard and unknown samples were preformulated in Coomassie blue G-250 assay reagent (Thermo Fisher Scientific, MA, USA), followed by a readout at 595 nm. Separation of the protein isolated from PC3 lysates, respectively (10 μg), with NuPAGE sample reducing agent and NuPAGE LDS sample buffer (Invitrogen, UK), was achieved via SDS-PAGE electrophoresis at 110 V for 2 h, prior to overnight transfer to the polyvinylidene difluoride (PVDF) membrane. The membranes were then blocked in 5% nonfat dry milk in Tris-buffered saline with 0.1% Tween-20 (TBST-T) for 1 h at room temperature.
Detection of MYC in PC3 cells was accomplished via immunoblot of the POI with the indicated monoclonal antibody (Cell Signaling Technology, MA, USA, catalog number #5605) at 1:1000 in TBST at […] overnight. The secondary anti-rabbit peroxidase-conjugate antibody (Cell Signaling Technology, MA, USA, catalog number #7074) was further added at 1:2000 dilution, followed by 1-h incubation at room temperature. Chemiluminescent visualization of the MYC protein bands was performed after the addition of Immobilon Crescendo Western HRP substrate (Sigma-Aldrich, Munich, Germany). For normalization of MYC concentration, GAPDH was labeled using the specific rabbit monoclonal antibody (Cell Signaling Technology, MA, USA, catalog number #5174) at 1:20000 in 5% nonfat dry milk. Protein bands were quantified with the ImageJ software.

MYC:MAX complex = assay: In vitro MYC-MAX binding assay (GST pull-down); format: biochemical; details: compound 150 μM
Method: To assess whether the new degraders affect direct interaction of MYC with MAX, we employed a pull-down approach using recombinant proteins that correspond to the bHLHZ regions of MYC and MAX. GST-MYC, bound to glutathione sepharose beads, was incubated with the pyrazole compounds, followed by incubation with His-MAX. Finally, the complex of GST-MYC/HisMAX was eluted by the addition of excess glutathione, while the amount of the eluted complex was assessed by western blotting using anti-MAX antibodies (Figure 5).
Figure 5 Inhibition of the formation of the MYC:MAX complex by the pyrazole compounds. The indicated compounds (150 μM), or the solvent alone (DMSO, used as a control), were incubated with GST-MYC containing glutathione beads for 10 min at […], followed by incubation with His-MAX. […] The complex of GST-MYC:His-MAX was eluted by incubation of the beads with free glutathione. The amount of the eluted complex was analyzed by western blotting (presented in the inset), using anti-MAX antibodies, while the protein bands were quantified with the ImageJ software. The intensity of the bands is presented in the bar graph. […] Statistics were based on the unpaired two-tailed student’s t-test. Data are shown as mean ± SEM.
MYC–MAX complex formation assays were performed using recombinantly produced GST-MYC and His-MAX proteins, following the glutathione GST pull-down principle (Lentzaris et al., in preparation). In this assay, recombinant GST-MYC bound to glutathione beads was preincubated with the indicated compound or vehicle […]. As a negative control, empty beads, i.e., not loaded with GST-MYC, were used. The formed complex was eluted with glutathione, while the amount of bound MAX (indicating the amount of the generated complex) was assessed by Western blotting using anti-MAX antibodies (Abcam) and quantified based on the image J free software. All assays were carried out at least three independent times.

SKBR3 cells [3] = assay: Cell viability (MTT) assay, SKBR3; format: cell-based, human
Method: as §1, §5

HCT116 cells = test system: HCT116 cells; set-up: method as in PMID 34838332; details: HCT116 cells ref 13; read-out: GI50 (viability); cited from earlier work
PSN1 cells = test system: PSN1 cells; set-up: method as in PMID 34838332; details: PSN1 cells ref 13; read-out: GI50 (viability); cited from earlier work
PC3 cells [4] = assay: Cell uptake / intracellular concentration by LC-MS/MS, PC3; format: in vitro ADME, human; details: PC3, 24 h incubation with 10 μM
Method: as §2, §3, §4

SMILES: Cn1nc(C(F)(F)F)cc1-c1ccc(OCCCN)c(-c2cc(C(F)(F)F)cc(C(F)(F)F)c2)c1O.O=C(O)C(F)(F)F [CSI118]
inhibition of MYC:MAX complex formation (binding of His-MAX to GST-MYC) (MYC:MAX complex): did not seem to interfere significantly; also recorded: no effect on MYC/MAX dimerization

SMILES: CCc1ccc(/C=C2/SC(=S)NC2=O)cc1 [Compound 10058-F4, reference compound]
IC50 (PC3 cells [2]; 72 h): 23 µM and 25 µM

SMILES: CC(C)c1ccc(/C=C2\SC(=O)N(CCCCCCCCNC(=O)c3ccc4c(c3)C(=O)N(C3CCC(=O)NC3=O)C4=O)C2=O)cc1 (stereo not shown) [MDEG-541]
GI50 (HCT116 cells): 14.3 µM
GI50 (PSN1 cells): 10.7 µM

SMILES: Cn1nc(C(F)(F)F)cc1-c1ccc(OCc2ccc(Cl)cc2)c(-c2cc(C(F)(F)F)cc(C(F)(F)F)c2)c1O [MYCi361, reference compound]
IC50 (SKBR3 cells [3]; Homo sapiens, SK-BR-3, 72 h, read-out: IC50 (antiproliferative effect)): 11 ± 4 µM
Uptake by cells (SKBR3 cells [1]): 19% and 19 ± 1%
Uptake by cells (PC3 cells [4]): 28% and 28 ± 5%
IC50 (PC3 cells [2]; Homo sapiens, PC-3, 72 h): 8 ± 1 µM
concentration range in which MYC was degraded (c-MYC): 5–10 μΜ

More lines, main results first:

IC50 (antiproliferative effect) (A549 cells): inactive
Uptake by cells (SKBR3 cells [1]): 16 ± 5%
IC50 (antiproliferative effect) (PC3 cells [2]; 72 h): inactive
MYC degradation (MYC levels by Western blot) (c-MYC): No particular effect
SMILES: Cc1ncsc1-c1ccc(CNC(=O)[C@@H]2C[C@@H](O)CN2C(=O)[C@@H](NC(=O)CNC(=O)CCC(=O)NCCCOc2ccc(-c3cc(C(F)(F)F)nn3C)c(O)c2-c2cc(C(F)(F)F)cc(C(F)(F)F)c2)C(C)(C)C)cc1 [CSI95]

MYC degradation (MYC levels by Western blot) (c-MYC): inactive
SMILES: Cc1ncsc1-c1ccc(CNC(=O)[C@@H]2C[C@H](O)CN2C(=O)[C@@H](NC(=O)CCCC(=O)NCCCOc2ccc(-c3cc(C(F)(F)F)nn3C)c(O)c2-c2cc(C(F)(F)F)cc(C(F)(F)F)c2)C(C)(C)C)cc1 [CSI212]
IC50 (antiproliferative effect) (SKBR3 cells [3]; 72 h): did not have any antiproliferative effect; also recorded: inactive
IC50 (antiproliferative effect) (PC3 cells [2]; 72 h): did not have any antiproliferative effect; also recorded: inactive

From paper PMC11650737, “Developing MYC Degraders Bearing the Von Hippel–Lindau Ligand to Target the “Undruggable” MYC” (ACS Pharmacology & Translational Science, 2024)
